This data set has as its system rodent carcinogenicity bioassays, tumor incidence. The data set is described as follows: CCRIS carcinogenicity studies. To be noted: Dose: 0, Dose: 0. The method, boiled down:
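NCI-built, expert-reviewed records of carcinogenicity and related test outcomes (mutagenicity, tumor promotion/inhibition) compiled from published and report sources, historical span 1985-2011, not updated.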

Molecules are shown by their SMILES. The source made the active and inactive calls. No rule for the calls is given here.

Regarding `O=[N+]([O-])c1cccc2ccccc12`, the carcinogen call is, setting by setting: (Species: MOUSE, Strain/Sex: B6C3F1/FEMALE, Route: ORAL, 0.06, 0.12% OF DIET, 0.06, 0.12% OF DIET) “inactive; negative”; (Species: MOUSE, Strain/Sex: B6C3F1/MALE, Route: ORAL, 0.06, 0.12% OF DIET, 0.06, 0.12% OF DIET) “inactive; negative”; (Species: RAT, Strain/Sex: F344/FEMALE, Route: ORAL, 0.06, 0.18% OF DIET, 0.06, 0.18% OF DIET) “inactive; negative”; (Species: RAT, Strain/Sex: F344/MALE, Route: ORAL, 0.06, 0.18% OF DIET, 0.06, 0.18% OF DIET) “inactive; negative”.
For `CCOC(=O)CC(SP(=S)(OC)OC)C(=O)OCC` (stereo not drawn), the carcinogen call was “inactive; negative” (Species: MOUSE, Strain/Sex: B6C3F1/FEMALE, Route: ORAL, 8000, 16000 PPM IN DIET, 8000, 16000 PPM IN DIET); “inactive; negative” (Species: MOUSE, Strain/Sex: B6C3F1/MALE, Route: ORAL, 8000, 16000 PPM IN DIET, 8000, 16000 PPM IN DIET); “inactive; negative” (Species: RAT, Strain/Sex: F344/FEMALE, Route: ORAL, 2000, 4000 PPM IN DIET, 2000, 4000 PPM IN DIET); “inactive; negative” (Species: RAT, Strain/Sex: F344/MALE, Route: ORAL, 2000, 4000 PPM IN DIET, 2000, 4000 PPM IN DIET); “inactive; negative” (Species: RAT, Strain/Sex: OSBORNE-MENDEL/FEMALE, Route: ORAL, 4700, 8150 PPM IN DIET, TWA FOR 80 WK, 4700, 8150 PPM IN DIET, TWA FOR 80 WK); “inactive; negative” (Species: RAT, Strain/Sex: OSBORNE-MENDEL/MALE, Route: ORAL, 4700, 8150 PPM IN DIET, TWA FOR 80 WK, 4700, 8150 PPM IN DIET, TWA FOR 80 WK).
As to `OC(c1ccc(Cl)cc1)(c1cncnc1)c1ccccc1Cl` (stereo not drawn), the carcinogen call runs as follows: (Species: Rat, Strain/Sex: Wistar/Female (120/Control group; 80/Experimental group), Route: Oral, 50, 130, 350 ppm in diet for 24 mo, study duration 24 mo, 50, 130, 350 ppm in diet for 24 mo, study duration 24 mo) “inactive; negative (nonstatistical increase in hepatocellular adenomas)”; (Species: Rat, Strain/Sex: Wistar/Male (120/Control group; 80/Experimental group), Route: Oral, 50, 130, 350 ppm in diet for 24 mo, study duration 24 mo, 50, 130, 350 ppm in diet for 24 mo, study duration 24 mo) “inactive; negative (nonstatistical increase in hepatocellular adenomas)”.
Take `CCN(CC)c1ccc2c(-c3ccc(S(=O)(=O)O)cc3S(=O)(=O)[O-])c3ccc(=[N+](CC)CC)cc-3oc2c1`: the carcinogen call is “inactive; negative” (Species: RAT, Strain/Sex: F344/FEMALE, Route: ORAL, 2.5, 5% IN DIET FOR 106 WK (STUDY DURATION: 106 WK), 2.5, 5% IN DIET FOR 106 WK (STUDY DURATION: 106 WK)) and “inactive; negative” (Species: RAT, Strain/Sex: F344/MALE, Route: ORAL, 2.5, 5% IN DIET FOR 106 WK (STUDY DURATION: 106 WK), 2.5, 5% IN DIET FOR 106 WK (STUDY DURATION: 106 WK)).
On to `CC(O)CN(C)N=O` (stereo not drawn), for which the carcinogen call by setting is: (Species: HAMSTER, Strain/Sex: SYRIAN/FEMALE, Route: GAVAGE, 1 MG IN 0.2 ML WATER 1/WK FOR 21 WK FOR A TOTAL DOSE OF 21 MG (STUDY DURATION: 45 WK), Tumor Site: Type of Lesion: LIVER: HEMANGIOSARCOMA OR HEMANGIOMA, LUNG: ALVEOLAR/BRONCHIOLAR ADENOMA, NASAL MUCOSA: CARCINOMA, Tumor Site: Type of Lesion: LIVER: HEMANGIOSARCOMA OR HEMANGIOMA, LUNG: ALVEOLAR/BRONCHIOLAR ADENOMA, NASAL MUCOSA: CARCINOMA) “active; positive”; (Species: HAMSTER, Strain/Sex: SYRIAN/FEMALE, Route: GAVAGE, 5 MG IN 0.2 ML WATER FOR 4 WK THEN 2 MG 1/WK FOR 14 WK FOR A TOTAL DOSE OF 48 MG (STUDY DURATION: 45 WK), Tumor Site: Type of Lesion: LIVER: HEMANGIOSARCOMA, HEPATOCELLULAR ADENOMA, CHOLANGIOCELLULAR CARCINOMA, CHOLANGIOCELLULAR ADENOMA, PANCREAS: DUCTAL) “active; positive”; (Species: RAT, Strain/Sex: F344/FEMALE, Route: GAVAGE, 4, 10 MG/WK FOR A TOTAL DOSE OF 0.6, 0.4 MMOL (STUDY DURATION: 50 WK), 4, 10 MG/WK FOR A TOTAL DOSE OF 0.6, 0.4 MMOL (STUDY DURATION: 50 WK), Tumor Site: Type of Lesion: ESOPHAGUS: TUMOR, KIDNEY: TUMOR, THYROID: TUMOR, LUNG: TUMOR, Tumor Site: Type of Lesion: ESOPHAGUS: TUMOR, KIDNEY: TUMOR, THYROID: TUMOR, LUNG: TUMOR) “active; positive”; (Species: RAT, Strain/Sex: F344/MALE, Route: GAVAGE, 4 MG/WK FOR A TOTAL DOSE OF 0.6 MMOL (STUDY DURATION: 50 WK), Tumor Site: Type of Lesion: ESOPHAGUS: TUMOR, NASAL MUCOSA: TUMOR) “active; positive”; (Species: RAT, Strain/Sex: WISTAR/MALE, Route: INTRAPERITONEAL, 4.4, 8.8, 17.6 MG/KG IN 0.9% SALINE 1/WK FOR 12 WK (STUDY DURATION: 26 WK), 4.4, 8.8, 17.6 MG/KG IN 0.9% SALINE 1/WK FOR 12 WK (STUDY DURATION: 26 WK), Tumor Site: Type of Lesion: NASAL CAVITY: CARCINOMA, PAPILLOMA) “active; positive”.
Regarding `CC1=C[C@]2(O[C@@H]3O[C@H](CO)[C@@H](O)[C@H](O)[C@H]3O)C[C@@H](C)C(=O)[C@@H]2[C@](C)(O)C12CC2`, the carcinogen call (Species: RAT, Strain/Sex: CD-1/FEMALE, Route: INTRAGASTRIC, 100-150 MG/KG BW IN SALINE 2/WK FOR 8 WK THEN ONCE ON WK 9 (TOTAL DOSE: 0; 339 MG) (STUDY DURATION: 300 D), 100-150 MG/KG BW IN SALINE 2/WK FOR 8 WK THEN ONCE ON WK 9 (TOTAL DOSE: 0; 339 MG) (STUDY DURATION: 300 D), Tumor Site: Type of Lesion: MAMMARY GLAND: ADENOCARCINOMA, CARCINOMA, SMALL INTESTINE: ADENOCARCINOMA, BLADDER: PAPILLOMA, Tumor Site: Type of Lesion: MAMMARY GLAND: ADENOCARCINOMA, CARCINOMA, SMALL INTESTINE: ADENOCARCINOMA, BLADDER: PAPILLOMA) was “active; positive” and the carcinogen call (Species: RAT, Strain/Sex: CD-1/FEMALE, Route: INTRAGASTRIC, 780 MG/KG BW IN SALINE ONCE THEN 0, 100-200 MG/KG 1/WK FOR 8 WK (TOTAL DOSE: 0; 300 MG) (STUDY DURATION: 300 D), 780 MG/KG BW IN SALINE ONCE THEN 0, 100-200 MG/KG 1/WK FOR 8 WK (TOTAL DOSE: 0; 300 MG) (STUDY DURATION: 300 D), Tumor Site: Type of Lesion: MAMMARY GLAND: ADENOCARCINOMA, CARCINOMA, SMALL INTESTINE: ADENOCARCINOMA) is “active; positive”.
On to `CCN=[N+](C)[O-]`, for which the carcinogen call (Species: RAT, Strain/Sex: F344/MALE, Route: ORAL, 12, 48 MG/ML IN A NEUTRAL DEIONIZED DRINKING WATER SOLUTION 5 D/WK FOR 30 WK (TOTAL DOSE 36; 144 MG) (STUDY DURATION:, 12, 48 MG/ML IN A NEUTRAL DEIONIZED DRINKING WATER SOLUTION 5 D/WK FOR 30 WK (TOTAL DOSE 36; 144 MG) (STUDY DURATION:, Tumor Site: Type of Lesion: LIVER: CARCINOMA, HEMANGIOSARCOMA, KIDNEY: TUMOR) was “active; positive”.
With `C[C@H]1CCCC(=O)CCC/C=C/c2cc(O)cc(O)c2C(=O)O1`, the carcinogen call was “active; positive” (Species: MOUSE, Strain/Sex: B6C3F1/FEMALE, Route: ORAL, 50, 100 PPM IN DIET, 50, 100 PPM IN DIET, Tumor Site: Type of Lesion: LIVER: HEPATOCELLULAR ADENOMA, CARCINOMA, PITUITARY GLAND: ADENOMA, CARCINOMA); “active; positive” (Species: MOUSE, Strain/Sex: B6C3F1/MALE, Route: ORAL, 50, 100 PPM IN DIET, 50, 100 PPM IN DIET, Tumor Site: Type of Lesion: PITUITARY GLAND: ADENOMA, CARCINOMA); “inactive; negative” (Species: RAT, Strain/Sex: F344/FEMALE, Route: ORAL, 25, 50 PPM IN DIET, 25, 50 PPM IN DIET); “inactive; negative” (Species: RAT, Strain/Sex: F344/MALE, Route: ORAL, 25, 50 PPM IN DIET, 25, 50 PPM IN DIET).
As to `O=C1OC2(c3ccccc31)c1cc(Br)c(O)c(Br)c1Oc1c2cc(Br)c(O)c1Br`, the carcinogen call (Species: MOUSE, Strain/Sex: ICR/FEMALE, Route: DERMAL, 1 MG IN 0.1 ML DISTILLED WATER 2/WK FOR A MEAN TOTAL DOSE OF 140.1 MG (STUDY DURATION: 18 MO)) is “inactive; negative” and the carcinogen call (Species: MOUSE, Strain/Sex: ICR/MALE, Route: DERMAL, 1 MG IN 0.1 ML DISTILLED WATER 2/WK FOR A MEAN TOTAL DOSE OF 140.1 MG (STUDY DURATION: 18 MO)) is “inactive; negative”.
